Results on 1 substance are retold here after publication PMC11124387, “A Reliable Multifaceted Solution against Foodborne Viral Infections: The Case of RiLK1 Decapeptide” (Molecules, 2024).

Read-outs that look alike come from different tables or passages of the source.

For assay [1], the system named is Hepatitis A virus (HAV) strain HM-175. The assay can be described thus: Virucidal effect of peptides on HAV (residual infectivity by TCID50 titration on Frp3 cells). The assay is classed as cell-based. Conditions: 1 h at 4 °C, mean ± SD, triplicate; for Viral Titre after Treatment: titration on Frp3 cells; for LRV (log reduction value): untreated minus treated titre.

For assay [2] the test system is unchanged. As to conditions: cited from earlier work; for LRV (log reduction value) / Viral Titre after Treatment: RT (20 ± 2 °C), mean ± SD, ref [46] (table footnote; text b35 cites [45]). The source says:
Table 2 In vitro effect of peptides on HAV. | column: Viral Titre after Treatment (logTCID50/mL ± SD) / RT; LRV (logTCID50/mL ± SD) / RT || In a previous work, the antiviral effects of RiLK1 and RiLK3 were already investigated against hepatitis A virus (HAV) following treatment at room temperature, and the obtained results are reported in Table 2. Briefly, RiLK1 was able to reduce HAV infectivity by more than 1 log in comparison with the untreated virus, displaying a log reduction value (LRV) of 1.4 at 80 μM and 1.1 at 40 μM concentration. […] Therefore, based on these preliminary results, further insights into the virucidal activity ...

For assay [3] the test system is unchanged. The assay can be described thus: Virus pre-treatment assay, HAV. The assay is classed as cell-based. As to conditions: virus pre-treatment: peptide 80 µM with virus 1 h at RT, mean ± SD. As for the experimental part: Four sets of experiments were performed to suppose the effect of RiLK1 and RiLK3 on HAV and MNV-1 [29]. To this aim, 80 µM solutions of the two peptides and HAV and MNV-1 suspensions at a final concentration of 4.7 ± 0.2 log TCID50/mL and 4.5 ± 0.2 log TCID50/mL, respectively, were used in the following experiments: • i) A virus pre-treatment assay to assess the direct interaction between the virus and peptide: the incubation of the peptide with viral suspension for 1 h at room temperature was carried out, followed by its incubation on cells for 1 h at 37 °C. Then, cell monolayers were washed twice with PBS and incubated with 500 µL DMEM/MEM supplemented with 2% of FBS to determine the TCID50/mL. • ii) A cell pre-treatment assay to assess the interaction between the peptide and cells before the viral infection: cell monolayers were preincubated with 100 µL of peptide solution for 1 h at 37 °C, followed by the removal of the peptide, addition to cells of viral suspensions for 1 h at 37 °C, washing step, and culture with 2% FBS DMEM/MEM. • iii) An attachment assay to assess the possible action of the peptide at the stage of virus attachment to cells: cell monolayers were incubated with 100 µL of a suspension containing both the peptide and virus and were incubated for 1 h at 4 °C. […]
(§1) For each treatment, the average and standard deviation of the triplicate analyses were calculated. The virucidal effects of AMPs was assessed by calculating the log reduction value (LRV), i.e., the difference between the infectious titer (log-transformed) of untreated versus treated samples. The statistical significance of differences between treated and untreated samples was determined through one-way analysis of variance (ANOVA) with Bonferroni post hoc comparisons, with a significance level of p < 0.05 (GraphPad Prism v9.5.0, software San Diego, CA, USA).

Assay [4] relates to Murine norovirus strain 1 (MNV-1). The assay is described as follows: Entry assay, MNV-1. Type of assay: cell-based. As to conditions: entry: cells with virus 1 h at 4 °C, then peptide 80 µM 1 h 37 °C, mean ± SD. As for the experimental part: Four sets of experiments were performed to suppose the effect of RiLK1 and RiLK3 on HAV and MNV-1 [29]. To this aim, 80 µM solutions of the two peptides and HAV and MNV-1 suspensions at a final concentration of 4.7 ± 0.2 log TCID50/mL and 4.5 ± 0.2 log TCID50/mL, respectively, were used in the following experiments: • i) A virus pre-treatment assay to assess the direct interaction between the virus and peptide: the incubation of the peptide with viral suspension for 1 h at room temperature was carried out, followed by its incubation on cells for 1 h at 37 °C. Then, cell monolayers were washed twice with PBS and incubated with 500 µL DMEM/MEM supplemented with 2% of FBS to determine the TCID50/mL. • ii) A cell pre-treatment assay to assess the interaction between the peptide and cells before the viral infection: cell monolayers were preincubated with 100 µL of peptide solution for 1 h at 37 °C, followed by the removal of the peptide, addition to cells of viral suspensions for 1 h at 37 °C, washing step, and culture with 2% FBS DMEM/MEM. • iii) An attachment assay to assess the possible action of the peptide at the stage of virus attachment to cells: cell monolayers were incubated with 100 µL of a suspension containing both the peptide and virus and were incubated for 1 h at 4 °C. Subsequently, the cell monolayers were washed with PBS and incubated for 1 h at 37 °C with a culture medium followed by a washing step and the addition of culture with 2% FBS DMEM/MEM. • iv) An entry assay to assess the possible action of the peptide at the stage of virus internalization into cells: cell monolayers were incubated with 100 µL of the viral suspension for 1 h at 4 °C, followed by the addition of the peptide and incubation for 1 h at 37 °C. Cells were then washed with PBS, and 2% FBS DMEM/MEM was finally added.
Untreated viral suspensions and peptide solutions, incubated at the same conditions, were used as controls.
as §1

Assay [5] has the same test system. The assay is classed as cell-based. Conditions: for Viral Titre after Treatment: titration on RAW 264.7 cells; for Viral Titre after Treatment / LRV (log reduction value): mean ± SD, triplicate.
The mark [6] stands for this setting: MNV-1 + peptide 40 µM, 1 h at 4 °C.
Where [7] appears, read: MNV-1 + peptide 40 µM, 1 h at RT (20 ± 2 °C).
Where [8] appears, read: MNV-1 + peptide 80 µM, 1 h at RT (20 ± 2 °C).

In the case of “RLRWVRIWRR-NH2 [RiLK3, RiLK1 analog differing by one amino acid (Lys replaced with Arg), C-terminally amidated]”, the “Viral Titre after Treatment” value in assay [1] (HAV 4.7 ± 0.2 log TCID50/mL + peptide 80 µM) is reported as 4.6 ± 0.1 logTCID50/mL; in assay [1] (HAV + peptide 40 µM) it was 4.6 ± 0.3 logTCID50/mL; in assay [2] (HAV + peptide 40 µM), 4.4 ± 0.1 ^a logTCID50/mL; in assay [2] (HAV + peptide 80 µM), 4.4 ± 0.1 ^a logTCID50/mL; in assay [5] (MNV-1 4.5 ± 0.2 log TCID50/mL + peptide 80 µM, 1 h at 4 °C) it was 4.5 ± 0.2 logTCID50/mL; in assay [5] (setting [6]) it was 4.5 ± 0.1 logTCID50/mL. For the same substance, the figures for the “Viral Titre after Treatment” value in assay [5] (setting [7]) and in assay [5] (setting [8]) were 4.5 ± 0.2 logTCID50/mL and 4.5 ± 0.1 logTCID50/mL, respectively. In addition, the “LRV (log reduction value)” value is 0.1 ± 0.2 logTCID50/mL in assay [1] (HAV + peptide 40 µM); 0.1 ± 0.3 logTCID50/mL in assay [1] (HAV + peptide 80 µM); 0.3 ± 0.3 ^a logTCID50/mL in assay [2] (HAV + peptide 40 µM); 0.3 ± 0.3 ^a logTCID50/mL in assay [2] (HAV + peptide 80 µM); 0 ± 0.3 logTCID50/mL in assay [5] (setting [6]); 0 ± 0.4 logTCID50/mL in assay [5] (setting [7]). In addition, the “LRV (log reduction value)” value in assay [5] (MNV-1 + peptide 80 µM, 1 h at 4 °C) was 0 ± 0.4 logTCID50/mL; in assay [5] (setting [8]), 0 ± 0.3 logTCID50/mL. For the same substance, in assay [2] (40 and 80 µM, room temperature, ref [45]), the “inhibition of HAV infection (in words)” value is listed as “unable to inhibit HAV infection”. Moreover, the “Viral Titre” value in assay [3] (then on Frp3 cells 1 h 37 °C) was 4.4 ± 0.1 logTCID50/mL; in assay [4], 3.5 ± 0.1 logTCID50/mL. Besides, the values for the LRV in assay [3] (then on cells 1 h 37 °C) and in assay [4] were 0.3 ± 0.3 logTCID50/mL and 1.0 ± 0.3 logTCID50/mL, respectively. Also, in assay [5] (40 and 80 µM, 4 °C and RT), the “virucidal activity toward MNV-1 (in words)” value is reported as “not effective”.
